Experimental findings from US20030204875A1, “Novel agrobacterium-mediated plant transformation method” (priority 1999, published 2003) are described below.

For the first test, the system named is Agrobacterium (strain ABI).
Test: not given
It is filed as cell-based. On the set-up: key: “No Growth” indicates there was not an increase in cell density indicating bacteriocidal or bacteriostatic property of the chemical; “Slow Growth” indicates that a slight increase in cell density was noticed and a higher level may be lethal; “Growth” indicates no effect on bacterial growth at the concentration used relative to growth in control medium. The following applies: control, final concentration 50 mg/L; twenty-four hours. The method, then: Each of the chemicals listed in Table 26 was resuspended in MS-BMS media and added (final concentration 50 μM) to a 50 ml overnight culture of Agrobacterium (strain ABI). Twenty-four hours after inoculation the effect of the chemicals on the growth of Agrobacterium was recorded. A known bacteriocidal compound, Carbenicillin at a final concentration of 50 mg/L and AgNO3 (20 μM) were used as controls.
Turning to `CC1(C)S[C@@H]2[C@H](NC(=O)C(C(=O)O)c3ccccc3)C(=O)N2[C@H]1C(=O)O` (some centres unmarked) [Carbenicillin, reference compound], the “Effect (on growth of Agrobacterium)” value is “No Growth”.

Still in this test, the particulars now being: final concentration 50 μM in MS-BMS media; twenty-four hours.
Consider `[Cl][Ni][Cl]` [Nickel Chloride], for which the “Effect (on growth of Agrobacterium)” value was “Growth”.

As to `[Cl-].[Cl-].[Zn+2]` [Zinc Chloride], the “Effect (on growth of Agrobacterium)” value is given as “Growth”. Consider `[Cl][Al]([Cl])[Cl]` [Aluminum Chloride], for which the “Effect (on growth of Agrobacterium)” value is recorded as “Growth”. Turning to `[Cl][Cd][Cl]` [Cadmium Chloride], the “Effect (on growth of Agrobacterium)” value was “Slow Growth”.

On to Lead Nitrate, for which the “Effect (on growth of Agrobacterium)” value is on record as “Growth”.

Turning to `[Na+].[Na+].[O]=[Mo](=[O])([O-])[O-]` [Sodium Molybdate], the “Effect (on growth of Agrobacterium)” value is recorded as “Growth”. For `[Cl][Cr][Cl]` [Chromium (II) Chloride], the “Effect (on growth of Agrobacterium)” value was “Growth”. On to Manganese Chloride, for which the “Effect (on growth of Agrobacterium)” value is listed as “Slow Growth”.

For `[Na+].[Na+].[O]=[W](=[O])([O-])[O-]` [Sodium Tungstate], the “Effect (on growth of Agrobacterium)” value is “Growth”.

Another test concerns immature embryos of genotype (H99×Pa 91)A188. The test can be described thus: Transformation efficiency of corn with different growth inhibiting agents during co-culture. It is filed as cell-based. The following applies: 50 mg/L in co-culture medium, three days; OD 4.0. The protocol: b) Biological assay (leaf bleach assay). Leaf samples (a leaf punch) from approximately 2-week-old seedlings were placed in wells of 24-well cell culture clusters (Costar Corporation, Cambridge, Mass.). Each well was filled with 0.5 ml aqueous solution composed of 300 mg/L paromomycin (Sigma) and 100 mg/L Benlate (a fungicide made by Du Pont), 100 mg/IL Benlate alone was used as a control. Three leaf samples from the same leaf of each plant were placed in two wells containing paromomycin plus Benlate and one well containing Benlate alone, respectively. Leaf samples from non-transformed plants were used as negative controls. The samples were vacuum-infiltrated in a dessicator using an in-house vacuum system for 5 min and then the clusters were sealed tightly with parafilm before being placed under light (140 μMol m-2s-1). The results were determined after 60 hours.
Immature embryos of genotype (H99×Pa 91)A188 were isolated as described. […] The Agrobacterium strain was pre-induced as described. The inoculation was performed using a concentration of A660 OD 4.0 for 15 minutes as described. Post inoculation, Agrobacterium suspension was removed and embryos were placed on different semi-solid co-culture media supplemented with various bacteriocidal compounds. All the tissues were incubated for three days in the dark. The transformation protocol followed was as described previously (corn IE transformation) except that the 1st selection with 50 mg/L Paromomycin was replaced with 25 mg/L Paromomycin for 2 weeks and 50 mg/L Paromomycin for 2 additional weeks. Transformation efficiency was calculated based on the number of embryos producing nptII positive plants as determined by a leaf bleach assay as described earlier. Three weeks after the transformation, the quality and growth characteristics of IE-derived callus co-cultured in the presence of different growth inhibiting agents.
`CC1(C)S[C@@H]2[C@H](NC(=O)C(C(=O)O)c3ccccc3)C(=O)N2[C@H]1C(=O)O` (some centres unmarked) [Carbenicillin, reference compound]: the “% Transformation” value came out at 14.3%.
